Measured values reported in US7704995B2 (Exelixis, Inc., priority 2003, dated 2010).
Where two headings read alike, the source gives them in different places.

Target: T1, Chk1 (Homo sapiens, UniProt O14757)
T1 construct: purchased Upstate Biotechnology
T1 sequence (O14757 1-476): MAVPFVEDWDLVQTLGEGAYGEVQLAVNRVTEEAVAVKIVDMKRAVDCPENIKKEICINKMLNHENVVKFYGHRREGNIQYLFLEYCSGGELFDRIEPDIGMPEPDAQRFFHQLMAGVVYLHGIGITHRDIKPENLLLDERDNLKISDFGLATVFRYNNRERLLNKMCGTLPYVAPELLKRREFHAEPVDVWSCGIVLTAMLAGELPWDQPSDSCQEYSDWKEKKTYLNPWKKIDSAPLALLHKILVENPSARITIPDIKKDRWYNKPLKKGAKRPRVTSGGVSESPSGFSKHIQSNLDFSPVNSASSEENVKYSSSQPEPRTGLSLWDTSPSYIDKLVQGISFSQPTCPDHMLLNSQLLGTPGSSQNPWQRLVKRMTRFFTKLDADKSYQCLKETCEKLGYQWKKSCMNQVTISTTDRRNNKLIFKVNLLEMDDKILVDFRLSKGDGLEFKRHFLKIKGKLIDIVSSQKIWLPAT
Assay: Chk1 kinase assay: incorporation of γ-33P ATP into immobilized myelin basic protein
Assay type: biochemical
Details: read-out: Chk1 IC50
Summary of the method: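 Read-out is scintillation counting of 33P incorporated into plate-bound myelin basic protein. Chk1 runs at 10 nM enzyme with 10 μM ATP, Chk2 at 20 nM with 30 μM ATP, each for 1 hour at room temperature. Duplicate points; IC50 taken as 50% activity reduction, Ki computed from IC50.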

[1] = Table 11, Chk1 only, class symbols A-D

Row | SMILES | IC50 [µM] | IC50 (Table 11, Chk1 only) [µM] | further results
1 | CNC(=O)c1nc(-c2cccc(OCCN3CCCCC3)c2)cnc1N [Example 188, 3-amino-N-methyl-6-{3-[(2-piperidin-1-ylethyl)oxy]phenyl}pyrazine-2-carboxamide] | 0.05 to 1 | – | –
2 | CNC(=O)c1nc(-c2cccc(C(=O)NCCc3ccccc3Cl)c2)cnc1N [Example 129, 3-amino-6-[3-({[2-(2-chlorophenyl)ethyl]amino}carbonyl)phenyl]-N-methylpyrazine-2-carboxamide] | 0.05 to 1 | – | –
3 | CNC(=O)c1nc(-c2cccc(CNC3CCc4cc(Cl)ccc43)c2)cnc1N (centres unmarked) [Example 477, 3-amino-6-(3-{[(5-chloro-2,3-dihydro-1H-inden-1-yl)amino]methyl}phenyl)-N-methylpyrazine-2-carboxamide] | – | < 0.05 | –
4 | Cc1nc(-c2nc(-c3cccc(C(=O)NCc4ccccc4)c3)cnc2N)nn1C [Example 671, 3-[5-amino-6-(1,5-dimethyl-1H-1,2,4-triazol-3-yl)pyrazin-2-yl]-N-(phenylmethyl)benzamide] | – | 1 to 10 | –
5 | Nc1ncc(-c2cccc(C(=O)NCc3ccc(F)cc3Cl)c2)nc1C(=O)N[C@H]1CCCNC1 [Example 1002, 3-amino-6-[3-({[(2-chloro-4-fluorophenyl)methyl]amino}carbonyl)phenyl]-N-[(3S)-piperidin-3-yl]pyrazine-2-carboxamide] | – | – | IC50 [1]: < 0.05 µM
6 | Nc1ncc(-c2cccc(CO)c2)nc1C(=O)NNC(=O)Nc1ccccc1 [Example 572, 2-({3-amino-6-[3-(hydroxymethyl)phenyl]pyrazin-2-yl}carbonyl)-N-phenylhydrazinecarboxamide] | – | 0.05 to 1 | –
7 | N=C(NNc1ccncc1)c1nc(-c2cccc(C(=O)N[C@@H]3CCc4ccccc43)c2)cnc1N [Example 748, 3-{5-amino-6-[imino(2-pyridin-4-ylhydrazino)methyl]pyrazin-2-yl}-N-[(1R)-2,3-dihydro-1H-inden-1-yl]benzamide] | – | 1 to 10 | –
8 | Nc1ncc(-c2cccc(CNC(=O)c3ccc(-c4ccccc4)cc3)c2)nc1C(=O)N[C@H]1CCCNC1 [Example 933, 3-amino-6-(3-{[(biphenyl-4-ylcarbonyl)amino]methyl}phenyl)-N-[(3S)-piperidin-3-yl]pyrazine-2-carboxamide] | – | – | IC50 [1]: < 0.05 µM
9 | CCN(CC)CCOc1cccc(-c2cnc(N)c(C(=O)NC)n2)c1 [Example 179, 3-amino-6-(3-{[2-(diethylamino)ethyl]oxy}phenyl)-N-methylpyrazine-2-carboxamide] | 0.05 to 1 | – | –
10 | CNC(=O)c1nc(-c2ccc(F)c(C(=O)N[C@H]3CCc4ccccc43)c2)cnc1N [Example 772, 3-amino-6-(3-{[(1S)-2,3-dihydro-1H-inden-1-ylamino]carbonyl}-4-fluorophenyl)-N-methylpyrazine-2-carboxamide] | – | 0.05 to 1 | –
11 | CN(C)c1nccc(-c2nc(-c3cccc(C(=O)NCc4ccccc4)c3)cnc2N)n1 [Example 609, 3-{5-amino-6-[2-(dimethylamino)pyrimidin-4-yl]pyrazin-2-yl}-N-(phenylmethyl)benzamide] | – | ≥ 10 | –
12 | Nc1ncc(-c2cccc(OCCN3CCOCC3)c2)nc1C(=O)N[C@H]1CCCNC1 [Example 960, 3-amino-6-{3-[(2-morpholin-4-ylethyl)oxy]phenyl}-N-[(3S)-piperidin-3-yl]pyrazine-2-carboxamide] | – | – | IC50 [1]: 0.05 to 1 µM
13 | CNC(=O)c1nc(-c2cccc(CNCc3cc(F)ccc3F)c2)cnc1N [Example 388, 3-amino-6-[3-({[(2,5-difluorophenyl)methyl]amino}methyl)phenyl]-N-methylpyrazine-2-carboxamide] | 0.05 to 1 | – | –
14 | CNC(=O)c1nc(-c2cccc(C(=O)N[C@@H]3CCCc4ccccc43)c2)cnc1N [Example 160, 3-amino-N-methyl-6-(3-{[(1R)-1,2,3,4-tetrahydronaphthalen-1-ylamino]carbonyl}phenyl)pyrazine-2-carboxamide] | 1 to 10 | – | –
15 | Nc1ncc(-c2cccc(C(=O)NCc3cccc(F)c3)c2)nc1-c1nnc([C@H]2CCCNC2)[nH]1 [Example 835, 3-(5-amino-6-{5-[(3S)-piperidin-3-yl]-4H-1,2,4-triazol-3-yl}pyrazin-2-yl)-N-[(3-fluorophenyl)methyl]benzamide] | – | – | IC50 [1]: < 0.05 µM
16 | Nc1ncc(-c2cccc(CN[C@H]3CCc4ccccc43)c2)nc1-c1nc([C@@H]2CCCNC2)n[nH]1 [Example 705, 5-(3-{[(1S)-2,3-dihydro-1H-inden-1-ylamino]methyl}phenyl)-3-{3-[(3R)-piperidin-3-yl]-1H-1,2,4-triazol-5-yl}pyrazin-2-amine] | – | < 0.05 | –
17 | CNC(=O)c1nc(-c2cccc(C(=O)NCc3ccccn3)c2)cnc1N [Example 121, 3-amino-N-methyl-6-(3-{[(pyridin-2-ylmethyl)amino]carbonyl}phenyl)pyrazine-2-carboxamide] | 0.05 to 1 | – | –
18 | CCN(CC)CCOc1cccc(-c2cnc(N)c(C(=O)N[C@H]3CCCNC3)n2)c1 [Example 959, 3-amino-6-(3-{[2-(diethylamino)ethyl]oxy}phenyl)-N-[(3S)-piperidin-3-yl]pyrazine-2-carboxamide] | – | – | IC50 [1]: < 0.05 µM
19 | CN(C)c1ccc(CNC(=O)c2cccc(-c3cnc(N)c(C(=O)N[C@H]4CCCNC4)n3)c2)cc1 [Example 852, 3-amino-6-{3-[({[4-(dimethylamino)phenyl]methyl}amino)carbonyl]phenyl}-N-[(3S)-piperidin-3-yl]pyrazine-2-carboxamide] | – | – | IC50 [1]: < 0.05 µM
20 | CNC(=O)c1nc(-c2cccc(CNCc3ccc(F)cc3F)c2)cnc1N [Example 387, 3-amino-6-[3-({[(2,4-difluorophenyl)methyl]amino}methyl)phenyl]-N-methylpyrazine-2-carboxamide] | < 0.05 | – | –
21 | CNC(=O)c1nc(-c2cccc(CN[C@@H]3c4ccccc4C[C@@H]3OC)c2)cnc1N [Example 468, 3-amino-N-methyl-6-[3-({[(1R,2S)-2-(methyloxy)-2,3-dihydro-1H-inden-1-yl]amino}methyl)phenyl]pyrazine-2-carboxamide] | – | 0.05 to 1 | –

Now from value to compound, other results behind:

Row | IC50 [µM] | IC50 (Table 11, Chk1 only) [µM] | SMILES | further results
22 | – | ≥ 10 | Nc1ncc(-c2cccc(C(=O)NCc3ccccc3)c2)nc1C(=O)NCCNC(=O)c1cnc2ccccc2n1 [Example 663, N-[2-({[3-amino-6-(3-{[(phenylmethyl)amino]carbonyl}phenyl)pyrazin-2-yl]carbonyl}amino)ethyl]quinoxaline-2-carboxamide] | –
23 | ≥ 10 | – | CNC(=O)c1nc(-c2cccc(C(=O)NC3c4ccccc4-c4ccccc43)c2)cnc1N [Example 284, 3-amino-6-{3-[(9H-fluoren-9-ylamino)carbonyl]phenyl}-N-methylpyrazine-2-carboxamide] | –
24 | – | ≥ 10 | Nc1ncc(-c2cccc(C(=O)NCc3ccccc3)c2)nc1C(=O)NCCNS(=O)(=O)c1cccc2cccnc12 [Example 662, 3-amino-6-(3-{[(phenylmethyl)amino]carbonyl}phenyl)-N-{2-[(quinolin-8-ylsulfonyl)amino]ethyl}pyrazine-2-carboxamide] | –
25 | – | 1 to 10 | Nc1ncc(-c2cccc(C(=O)NCc3ccccc3)c2)nc1C(=O)N[C@H]1CCN(C[C@H]2CCCN2)C1 [Example 689, 3-amino-6-(3-{[(phenylmethyl)amino]carbonyl}phenyl)-N-{(3S)-1-[(2R)-pyrrolidin-2-ylmethyl]pyrrolidin-3-yl}pyrazine-2-carboxamide] | –
26 | – | ≥ 10 | N=C(NNc1nc2ccccc2s1)c1nc(-c2cccc(C(=O)NCc3ccccc3)c2)cnc1N [Example 669, 3-{5-amino-6-[[2-(1,3-benzothiazol-2-yl)hydrazino](imino)methyl]pyrazin-2-yl}-N-(phenylmethyl)benzamide] | –
27 | – | ≥ 10 | CN(C)c1ccc(C(=O)NCCNC(=O)c2nc(-c3cccc(C(=O)NCc4ccccc4)c3)cnc2N)cc1 [Example 692, 3-amino-N-[2-({[4-(dimethylamino)phenyl]carbonyl}amino)ethyl]-6-(3-{[(phenylmethyl)amino]carbonyl}phenyl)pyrazine-2-carboxamide] | –
28 | 0.05 to 1 | – | CNC(=O)c1nc(-c2cc(C(=O)NCc3ccccc3)ccc2F)cnc1N [Example 368, 3-amino-6-(2-fluoro-5-{[(phenylmethyl)amino]carbonyl}phenyl)-N-methylpyrazine-2-carboxamide] | –
29 | – | ≥ 10 | CN(C)c1ccc(NC(=O)NCCNC(=O)c2nc(-c3cccc(C(=O)NCc4ccccc4)c3)cnc2N)cc1 [Example 691, 3-amino-N-{2-[({[4-(dimethylamino)phenyl]amino}carbonyl)amino]ethyl}-6-(3-{[(phenylmethyl)amino]carbonyl}phenyl)pyrazine-2-carboxamide] | –
30 | 0.05 to 1 | – | CNC(=O)c1nc(-c2cccc(C(=O)NCc3ccc(Br)cc3)c2)cnc1N [Example 304, 3-amino-6-[3-({[(4-bromophenyl)methyl]amino}carbonyl)phenyl]-N-methylpyrazine-2-carboxamide] | –
31 | – | ≥ 10 | CC(C)(C)OC(=O)N1CCC(NC(=O)c2nc(-c3cccc(C(=O)NCc4ccccc4)c3)cnc2N)C1 (centres unmarked) [Example 567, 1,1-dimethylethyl 3-({[3-amino-6-(3-{[(phenylmethyl)amino]carbonyl}phenyl)pyrazin-2-yl]carbonyl}amino)pyrrolidine-1-carboxylate] | –
32 | – | 1 to 10 | N=C(NNc1ccccc1)c1nc(-c2cccc(C(=O)NCc3ccccc3)c2)cnc1N [Example 619, 3-{5-amino-6-[imino(2-phenylhydrazino)methyl]pyrazin-2-yl}-N-(phenylmethyl)benzamide] | –
